Consider two compounds from patent US11786512B2, “Stable pharmaceutical compositions of dihydroergotamine mesylate” (Slayback Pharma LLC, priority 2019, dated 2023).

Where a name gives a salt, the structure may show the parent alone. Read-outs that look alike come from different tables or passages of the source.

Series [1] in a line: Rate of epimerization of DHE mesylate as a function of pH. Type of series: physicochemical. From the text:
Maintaining the pH above 5.0 in the compositions prepared according to the present invention results in a better stability profile when compared to DHE 45 maintained at a pH of 3.4-4.9.

The subject of the next series is migraine. The following applies: cited from earlier work.

With `CN1C[C@H](C(=O)N[C@]2(C)O[C@@]3(O)[C@@H]4CCCN4C(=O)[C@H](Cc4ccccc4)N3C2=O)C[C@@H]2c3cccc4[nH]cc(c34)C[C@H]21` [DHE mesylate, Dihydroergotamine mesylate], the rate of epimerization entry in series [1] (pH of less than 4.0) was “higher”; in series [1] (pH of more than 5.0), “significantly lesser”.

On to `CN1C[C@H](C(=O)N[C@]2(C)O[C@@]3(O)[C@@H]4CCCN4C(=O)[C@H](Cc4ccccc4)N3C2=O)C[C@@H]2c3cccc4[nH]cc(c34)C[C@H]21` [DHE, Dihydroergotamine], for which the entries for the “onset of therapeutic efficacy” value with migraine (intranasal) and in the series with migraine (oral or sublingual delivery) were 45 min and 120 min, respectively. Moreover, in the series on migraine (parenteral administration), the onset of action result is listed as “less than 30 minutes”.
